Experimental findings from ChEMBL document CHEMBL1150100, “Bruceanols G and H cytotoxic quassinoids from Brucea antidysenterica” (1995) are described below.

Common to all, as to format: functional
Common to all, as to details: read-out: ED50 (the source's name)

In one assay the test system is SK-MEL-5. The experiment in a line: Cytotoxicity against human SK-MEL-5 cells.
In a further assay the test system is KB. The experiment in a line: Cytotoxicity against human KB cells.
In the next assay the test system is COLO 205. The experiment in a line: Cytotoxicity against human COLO205 cells.

Regarding `COC(=O)[C@@]12OC[C@]34[C@H]([C@@H](O)[C@@H]1O)[C@@]1(C)[C@H](O)C(=O)C[C@@H](C)[C@@H]1C[C@H]3OC(=O)[C@H](OC(=O)/C=C(\C)C(C)(C)OC(C)=O)[C@@H]24` [BRUCEANOL G], the EC50 in the assay on SK-MEL-5 turned out to be 4080 nM; in the assay on KB it was 550 nM; in the assay on COLO 205 it was 440 nM.

For the compound `COC(=O)[C@@]12OC[C@]34[C@H]([C@@H](O)[C@@H]1O)[C@@]1(C)C(=O)[C@@H](O)C[C@@H](C)[C@@H]1C[C@H]3OC(=O)[C@H](OC(=O)/C=C(\C)C(C)C)[C@@H]24` [BRUCEANOL H], the EC50 with SK-MEL-5 was 6370 nM.
